# Measured values from paper PMC12700550, “DLL4^+ neutrophils promote Notch1-mediated endothelial PANoptosis to exacerbate acute lung injury in sepsis” (The Journal of Clinical Investigation, 2025).
# Several values for one entry are separate records, joined by “and”; a condition that tells them apart may be missing. Identical values can stand only once.
# Assays:
# C57BL/6 mice, CLP sepsis [1] = test: Serum lactate dehydrogenase (LDH), CLP mice; assay type: in vivo, mouse; design: serum LDH (Figure 6C): unit not given here; details: 20 h; for serum LDH (Figure 6C): 10 mg/kg NDI, individual mice
# Method: (§1) Sepsis was induced in mice by cecal ligation and puncture (CLP) as described previously ([45], [46]). Mice were anesthetized with isoflurane to a surgical plane and placed in a supine position. CLP was performed through a midline laparotomy. The abdomen was shaved and disinfected. Through a 2 cm midline incision, the cecum was exposed and then ligated with a 4-0 silk suture 1 cm proximal from the distal cecal extremity. […] A small amount of cecal content was extruded through both holes, and the ligated cecum was returned to the peritoneal cavity. The wound was closed in layers. […] A small amount of cecal content was extruded. […] Vehicle groups received an equivalent volume of PBS, while treatment groups received NDI 10 mg/kg in […] PBS via retro-orbital injection after CLP. This dose was chosen primarily on the basis of our laboratory’s prior experience, we have consistently used this dose in mouse CLP models with reproducible efficacy and without observable toxicity ([39], [44]). Sham-operated animals underwent a laparotomy without CLP. After closure, the mice received a subcutaneous injection of 0.5 mL of normal saline to overcome surgery-induced dehydration. […] All mice were subcutaneously injected with a single dose of 0.1 mg/kg buprenorphine after CLP. Serum levels of alanine aminotransferase, aspartate aminotransferase, and lactate dehydrogenase were determined using specific colorimetric enzymatic assays (Pointe Scientific Inc.) according to the manufacturer’s instructions.
# p-MLKL = test: p-MLKL/MLKL (necroptosis) in PVECs cocultured with neutrophils, Western blot; assay type: cell-based, mouse; details: for p-MLKL/MLKL (Figure 4I): 10 μM peptide, 16 h, individual replicates
# Method: Wild-type PVECs (5 × 10^5) were cocultured with sorted DLL4^+ neutrophils (5 × 10^5) or DLL4^– neutrophils (5 × 10^5) and then treated with different dosages of peptides or 10 μM DAPT (Thermo Fisher Scientific), 10 μM NDI (GenScript), or 10 μM NDI scramble (GenScript). Notch1-knockdown PVECs (5 × 10^5) were cocultured with sorted DLL4^+ neutrophils (5 × 10^5). After 16 hours, neutrophils were washed away by PBS, and PVECs were collected for further experiments. Cell viability was evaluated by propidium iodide staining using the FITC Annexin V Apoptosis Detection Kit I (catalog 556547, BD Pharmingen). Cell death was quantified as the percentage of propidium iodide–positive cells by flow cytometry.
# PVECs and lung tissue were collected in previous steps. Whole-cell proteins were extracted, and the protein concentration was measured using an ABC protein assay kit (catalog 5000002, Bio-Rad). Proteins were separated using NuPAGE 4%–12% Bis-Tris gels (Invitrogen), transferred to PVDF membranes, and immunoblotted with the antibodies indicated in the figure legends according to the manufacturer’s recommendations. The ZBP1 antibody (catalog PA5-20455; 1:1,000) used in this study was obtained from Thermo Fisher Scientific, and the c-GSDMD (catalog 10137S; 1:250), GSDMD (catalog 39754S; 1:1000), c-caspase-3 (catalog 9661L; 1:250), caspase-3 (catalog 9662S; 1:1,000), p-MLKL (catalog 37333S; 1:250), MLKL (catalog 37705S; 1:1,000), N1ICD (c-Notch1) (catalog 4147S; 1:250), and Notch1 (catalog 3608S; 1:1,000) antibodies were obtained from Cell Signaling Technology. GAPDH (catalog 60004-1-Ig; 1:10,000) and β-actin (catalog A5441, Sigma-Aldrich; 1:5,000) were obtained from ProteinTech. After the blots were incubated with primary antibodies, the membranes were washed 3 times, and the blots were subsequently incubated with the corresponding fluorescent secondary antibody (LI-COR). Bands were detected using an Odyssey FC Dual-Mode Imaging system 2800 (LI-COR).
# C57BL/6 mice, CLP sepsis [2] = test: Serum alanine aminotransferase (ALT), CLP mice; assay type: in vivo, mouse; design: serum ALT (Figure 6A): unit not given here; details: 20 h; for serum ALT (Figure 6A): 10 mg/kg NDI, individual mice
# Method: as §1
# [3] = DLL4^+ neutrophil-injected CLP mice, 10 mg/kg
sequence,measurement,setting,value
ECAGSPCHNGGTCEDGI [NDI],effect on serum LDH,"C57BL/6 mice, CLP sepsis [1]; [3]",significantly reduced the serum levels of hepatic and cell injury markers and proinflammatory cytokines
same,serum LDH (Figure 6C),"C57BL/6 mice, CLP sepsis [1]; DLL4^+ neutrophils + CLP",147.333 and 112.563 and 68.952 and 111.973 and 140.948 and 125.756 and 107.496 and 149.824 and 137.164 and 20.8187 and 17.4427 and 47.264 and 66.5947 and 58.344 and 58.9333 and 52.4507 and 35.9493
same,serum LDH (Figure 6C),"C57BL/6 mice, CLP sepsis [1]; DLL4^– neutrophils + CLP",149.691 and 73.0773 and 124.349 and 178.568 and 24.752 and 44.7893 and 34.7707 and 33.0027 and 50.0933
same,effect on p-MLKL,"p-MLKL; 10 μM NDI, DLL4^+ neutrophil coculture",significantly reduced these markers of PANoptosis
same,p-MLKL/MLKL (Figure 4I),p-MLKL; DLL4^+ neutrophil coculture,1.115 and 1.398 and 1.246 and 1.299 and 0.9429 and 1.577 and 2.352
same,p-MLKL/MLKL (Figure 4I),p-MLKL; DLL4^– neutrophil coculture,0.4818 and 0.8655 and 0.6799 and 0.9484
same,effect on serum ALT,"C57BL/6 mice, CLP sepsis [2]; [3]",significantly reduced the serum levels of hepatic and cell injury markers and proinflammatory cytokines
same,serum ALT (Figure 6A),"C57BL/6 mice, CLP sepsis [2]; DLL4^+ neutrophils + CLP",41.99 and 15.47 and 55.25 and 44.642 and 25.194 and 38.454 and 50.83 and 38.896 and 29.172 and 10.94 and 28.288 and 3.978 and 26.078 and 2.21
same,serum ALT (Figure 6A),"C57BL/6 mice, CLP sepsis [2]; DLL4^– neutrophils + CLP",37.57 and 15.028 and 26.52 and 77.35 and 30.94 and 22.1 and 12.818 and 10.608
